Read-outs that look alike come from different tables or passages of the source.
Assays:
[1] = target: T1, EIF2AK3 (PERK) catalytic domain (amino acids 536-1116) (Homo sapiens, UniProt Q9NZJ5); assay: PERK in vitro activity assay (isolated), TR-FRET kinase assay; type: biochemical; conditions: isolated PERK enzyme, 1.5 μM ATP; read-out: Biochemical IC50
T1 construct: EIF2AK3 (PERK) catalytic domain (amino acids 536-1116)
T1 sequence (Q9NZJ5 536-1116): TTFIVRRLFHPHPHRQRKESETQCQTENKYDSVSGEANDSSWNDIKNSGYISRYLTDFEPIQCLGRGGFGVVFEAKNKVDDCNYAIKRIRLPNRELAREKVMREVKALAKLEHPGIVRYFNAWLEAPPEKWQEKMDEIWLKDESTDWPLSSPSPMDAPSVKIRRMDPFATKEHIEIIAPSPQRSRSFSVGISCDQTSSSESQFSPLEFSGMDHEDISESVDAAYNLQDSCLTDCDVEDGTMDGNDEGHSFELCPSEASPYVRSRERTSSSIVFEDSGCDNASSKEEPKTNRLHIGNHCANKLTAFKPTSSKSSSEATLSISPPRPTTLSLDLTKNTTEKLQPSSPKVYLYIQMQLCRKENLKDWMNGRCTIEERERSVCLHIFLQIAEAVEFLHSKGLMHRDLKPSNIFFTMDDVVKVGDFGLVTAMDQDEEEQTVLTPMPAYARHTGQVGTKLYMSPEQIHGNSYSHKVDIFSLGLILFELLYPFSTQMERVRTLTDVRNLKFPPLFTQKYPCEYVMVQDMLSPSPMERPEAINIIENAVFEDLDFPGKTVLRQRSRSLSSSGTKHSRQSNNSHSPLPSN
Method in brief: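 Human PERK catalytic domain (aa 536-1116) phosphorylating 100-200 nM GFP-eIF2a in 50 mM HEPES pH 7.5, 10 mM MgCl2, 1 mM EGTA, 0.01% Brij-35; enzyme-started, 45 min at room temperature. Stopped with 10 mM EDTA, 2 nM Tb-anti-phospho-eIF2a added for 90 min; IC50 from TR-FRET ratios by 4-parameter logistic fit.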

[2] = system: GFP-eIF2α in HEK293 cells; assay: PERK cellular assay, TR-FRET in HEK293-EGFP-eIF2a cells after tunicamycin-induced ER stress; type: cell-based; conditions: HEK293-EGFP-eIF2a cells, tunicamycin 2 hours, read-out: Cellular eIF2α IC50
Method in brief: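 HEK293 cells stably expressing GFP-eIF2α, plated 5000 cells/well overnight, pretreated with inhibitors 30 min at 37 °C, then ER stress induced with tunicamycin […] for 2 h.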

| Structure (SMILES) | IC50 [1] [nM] | IC50 [2] [nM] | IC50 ([2]; Homo sapiens, HEK293, 2 h) [nM] |
| --- | --- | --- | --- |
| Cc1cc(F)cc(C(O)C(=O)Nc2ccc(-c3cn(C)c4nc(C)nc(N)c34)c(F)c2)c1 (stereo not shown) [Example 86, N-(4-(4-amino-2,7-dimethyl-7H-pyrrolo[2,3-d]pyrimidin-5-yl)-3-fluorophenyl)-2-(3-fluoro-5-methylphenyl)-2-hydroxyacetamide] | 1 to 25 | 51 to 100 | – |
| Cc1cccc(CC(=O)Nc2ccc(-c3cn(C)c4ncnc(N)c34)c(C)c2)c1 [Example 143, N-(4-(4-amino-7-methyl-7H-pyrrolo[2,3-d]pyrimidin-5-yl)-3-methylphenyl)-2-(m-tolyl)acetamide] | 1 to 25 | – | 26 to 50 |
| Cc1nc(N)c2c(-c3cc(F)c(NC(=O)C(O)c4cccc(F)c4)cc3C)cn(C)c2n1 (single isomer, unassigned) [Example 122, N-(4-(4-amino-2,7-dimethyl-7H-pyrrolo[2,3-d]pyrimidin-5-yl)-2-fluoro-5-methylphenyl)-2-(3-fluorophenyl)-2-hydroxyacetamide] | 101 to 250 | 1000 to 2000 | – |
| Cc1cc(NC(=O)C(O)c2cccc(F)c2)ccc1-c1cn(C)c2ncnc(N)c12 (stereo not shown) [Example 11, N-(4-(4-amino-7-methyl-7H-pyrrolo[2,3-d]pyrimidin-5-yl)-3-methylphenyl)-2-(3-fluorophenyl)-2-hydroxyacetamide] | 1 to 25 | 1 to 25 | – |
| Cc1cc(NC(=O)C(F)(F)c2ccccc2)ccc1-c1cn(C)c2ncnc(N)c12 [Example 28, N-(4-(4-amino-7-methyl-7H-pyrrolo[2,3-d]pyrimidin-5-yl)-3-methylphenyl)-2,2-difluoro-2-phenylacetamide] | 251 to 500 | – | 501 to 1000 |
| Cc1nc(N)c2c(-c3ccc(NC(=O)C(O)c4cccc(F)c4)cc3Cl)cn(C)c2n1 (stereo not shown) [Example 91, N-(4-(4-amino-2,7-dimethyl-7H-pyrrolo[2,3-d]pyrimidin-5-yl)-3-chlorophenyl)-2-(3-fluorophenyl)-2-hydroxyacetamide] | 101 to 250 | 501 to 1000 | – |
| CCc1cccc(CC(=O)Nc2ccc(-c3cn(C)c4ncnc(N)c34)c(C)c2)c1 [Example 146, N-(4-(4-amino-7-methyl-7H-pyrrolo[2,3-d]pyrimidin-5-yl)-3-methylphenyl)-2-(3-ethylphenyl)acetamide] | 1 to 25 | – | 1 to 25 |
| Cc1cc(NC(=O)Cc2ccccc2Cl)ccc1-c1cn(C)c2ncnc(N)c12 [Example 149, N-(4-(4-amino-7-methyl-7H-pyrrolo[2,3-d]pyrimidin-5-yl)-3-methylphenyl)-2-(2-chlorophenyl)acetamide] | 1 to 25 | – | 26 to 50 |
| CCc1cc(F)cc(C(O)C(=O)Nc2ccc(-c3cn(C)c4nc(C)nc(N)c34)c(C)c2)c1 (stereo not shown) [Example 59, N-(4-(4-amino-2,7-dimethyl-7H-pyrrolo[2,3-d]pyrimidin-5-yl)-3-methylphenyl)-2-(3-ethyl-5-fluorophenyl)-2-hydroxyacetamide] | 51 to 100 | 251 to 500 | – |
| Cc1nc(N)c2c(-c3ccc(NC(=O)C(O)c4cc(F)cc(C(F)(F)F)c4)cc3F)cn(C)c2n1 (stereo not shown) [Example 88, N-(4-(4-amino-2,7-dimethyl-7H-pyrrolo[2,3-d]pyrimidin-5-yl)-3-fluorophenyl)-2-(3-fluoro-5-(trifluoromethyl)phenyl)-2-hydroxyacetamide] | 26 to 50 | 251 to 500 | – |
| Cc1cc(NC(=O)Cc2ccccc2C(F)(F)F)ccc1-c1cn(C)c2ncnc(N)c12 [Example 157, N-(4-(4-amino-7-methyl-7H-pyrrolo[2,3-d]pyrimidin-5-yl)-3-methylphenyl)-2-(2-(trifluoromethyl)phenyl)acetamide] | 1 to 25 | – | 51 to 100 |
| Cc1nc(N)c2c(-c3ccc(NC(=O)C(O)c4cccc(Cl)c4)c(F)c3F)cn(C)c2n1 (stereo not shown) [Example 111, N-(4-(4-amino-2,7-dimethyl-7H-pyrrolo[2,3-d]pyrimidin-5-yl)-2,3-difluorophenyl)-2-(3-chlorophenyl)-2-hydroxyacetamide] | 1 to 25 | 1 to 25 | – |
| Cn1cc(-c2ccc(NC(=O)C(O)c3cccc(F)c3)cc2Cl)c2c(N)ncnc21 (stereo not shown) [Example 14, N-(4-(4-amino-7-methyl-7H-pyrrolo[2,3-d]pyrimidin-5-yl)-3-chlorophenyl)-2-(3-fluorophenyl)-2-hydroxyacetamide] | 1 to 25 | 1 to 25 | – |
| Cc1nc(N)c2c(-c3ccc(NC(=O)C(O)c4cccc(C(F)(F)F)c4)c(F)c3F)cn(C)c2n1 (stereo not shown) [Example 108, N-(4-(4-amino-2,7-dimethyl-7H-pyrrolo[2,3-d]pyrimidin-5-yl)-2,3-difluorophenyl)-2-hydroxy-2-(3-(trifluoromethyl)phenyl)acetamide] | 101 to 250 | 101 to 250 | – |
| Cc1nc(N)c2c(-c3ccc(NC(=O)C(O)c4cccc(Cl)c4)cc3Cl)cn(C)c2n1 (stereo not shown) [Example 100, N-(4-(4-amino-2,7-dimethyl-7H-pyrrolo[2,3-d]pyrimidin-5-yl)-3-chlorophenyl)-2-(3-chlorophenyl)-2-hydroxyacetamide] | 26 to 50 | 101 to 250 | – |
| Cc1nc(N)c2c(-c3ccc(NC(=O)C(O)c4cccc(F)c4)cc3Cl)cn(C)c2n1 (stereo not shown) [Example 92, N-(4-(4-amino-2,7-dimethyl-7H-pyrrolo[2,3-d]pyrimidin-5-yl)-3-chlorophenyl)-2-(3-fluorophenyl)-2-hydroxyacetamide] | 1 to 25 | 51 to 100 | – |
| Cc1nc(N)c2c(-c3ccc(NC(=O)C(O)c4ccccc4C)cc3Cl)cn(C)c2n1 (stereo not shown) [Example 93, N-(4-(4-amino-2,7-dimethyl-7H-pyrrolo[2,3-d]pyrimidin-5-yl)-3-chlorophenyl)-2-hydroxy-2-(o-tolyl)acetamide] | 501 to 1000 | 2000 to 3000 | – |
| Cc1nc(N)c2c(-c3ccc(NC(=O)C(O)c4ccccc4Cl)cc3F)cn(C)c2n1 (stereo not shown) [Example 70, N-(4-(4-amino-2,7-dimethyl-7H-pyrrolo[2,3-d]pyrimidin-5-yl)-3-fluorophenyl)-2-(2-chlorophenyl)-2-hydroxyacetamide] | 1000 to 2000 | – | > 5000 |
| Cc1nc(N)c2c(-c3ccc(NC(=O)C(O)c4cc(F)cc(C(F)(F)F)c4)cc3C)cn(C)c2n1 (single isomer, unassigned) [Example 55, N-(4-(4-amino-2,7-dimethyl-7H-pyrrolo[2,3-d]pyrimidin-5-yl)-3-methylphenyl)-2-(3-fluoro-5-(trifluoromethyl)phenyl)-2-hydroxyacetamide] | 101 to 250 | 251 to 500 | – |
| Cc1nc(N)c2c(-c3ccc(NC(=O)C(O)c4cccc(F)c4)cc3F)cn(C)c2n1 (stereo not shown) [Example 80, N-(4-(4-amino-2,7-dimethyl-7H-pyrrolo[2,3-d]pyrimidin-5-yl)-3-fluorophenyl)-2-(3-fluorophenyl)-2-hydroxyacetamide] | 1 to 25 | 26 to 50 | – |
| Cc1nc(N)c2c(-c3ccc(NC(=O)C(O)c4cc(F)cc(C(F)(F)F)c4)cc3C)cn(C)c2n1 (single isomer, unassigned) [Example 54, N-(4-(4-amino-2,7-dimethyl-7H-pyrrolo[2,3-d]pyrimidin-5-yl)-3-methylphenyl)-2-(3-fluoro-5-(trifluorophenyl)phenyl)-2-hydroxyacetamide] | 1 to 25 | 26 to 50 | – |
| Cc1cc(NC(=O)C(O)c2ccccc2C)ccc1-c1cn(C)c2ncnc(N)c12 (stereo not shown) [Example 39, N-(4-(4-amino-7-methyl-7H-pyrrolo[2,3-d]pyrimidin-5-yl)-3-methylphenyl)-2-hydroxy-2-(o-tolyl)acetamide] | 1 to 25 | – | 26 to 50 |
| Cc1cc(NC(=O)Cc2cccc(C(C)C)c2)ccc1-c1cn(C)c2ncnc(N)c12 [Example 148, N-(4-(4-amino-7-methyl-7H-pyrrolo[2,3-d]pyrimidin-5-yl)-3-methylphenyl)-2-(3-isopropylphenyl)acetamide] | 1 to 25 | – | 101 to 250 |
| CCc1ccc(CC(=O)Nc2ccc(-c3cn(C)c4ncnc(N)c34)c(C)c2)cc1 [Example 147, N-(4-(4-amino-7-methyl-7H-pyrrolo[2,3-d]pyrimidin-5-yl)-3-methylphenyl)-2-(4-ethylphenyl)acetamide] | 1 to 25 | – | 51 to 100 |
| Cc1nc(N)c2c(-c3ccc(NC(=O)C(O)c4cccc(Cl)c4)cc3C)cn(C)c2n1 (stereo not shown) [Example 36, N-(4-(4-amino-2,7-dimethyl-7H-pyrrolo[2,3-d]pyrimidin-5-yl)-3-methylphenyl)-2-(3-chlorophenyl)-2-hydroxyacetamide] | 1 to 25 | 26 to 50 | – |
| Cc1nc(N)c2c(-c3ccc(NC(=O)C(O)c4cccc(F)c4)c(F)c3C)cn(C)c2n1 (stereo not shown) [Example 12, N-(4-(4-amino-2,7-dimethyl-7H-pyrrolo[2,3-d]pyrimidin-5-yl)-2-fluoro-3-methylphenyl)-2-(3-fluorophenyl)-2-hydroxyacetamide] | 1 to 25 | 1 to 25 | – |

Reference: patent publication US20220356186A1, “PERK INHIBITING PYRROLOPYRIMIDINE COMPOUNDS” (HiberCell, Inc., priority 2019, published 2022)
